Data from publication PMC4894402, “Characterization of the honeybee AmNaV1 channel and tools to assess the toxicity of insecticides” (Scientific Reports, 2015).

Target: T1, AmNaV1 (Apis mellifera NaV1 voltage-gated sodium channel) (Apis mellifera, UniProt C9D7C5)
T1 construct: gene PARA; AmNaV1 channel expressed in Xenopus oocytes; with TipE regulatory subunit (honeybee)
Assay: two-microelectrode voltage-clamp in Xenopus oocytes, tail current dose-response
Assay type: cell-based

T1 sequence (C9D7C5 1-2044): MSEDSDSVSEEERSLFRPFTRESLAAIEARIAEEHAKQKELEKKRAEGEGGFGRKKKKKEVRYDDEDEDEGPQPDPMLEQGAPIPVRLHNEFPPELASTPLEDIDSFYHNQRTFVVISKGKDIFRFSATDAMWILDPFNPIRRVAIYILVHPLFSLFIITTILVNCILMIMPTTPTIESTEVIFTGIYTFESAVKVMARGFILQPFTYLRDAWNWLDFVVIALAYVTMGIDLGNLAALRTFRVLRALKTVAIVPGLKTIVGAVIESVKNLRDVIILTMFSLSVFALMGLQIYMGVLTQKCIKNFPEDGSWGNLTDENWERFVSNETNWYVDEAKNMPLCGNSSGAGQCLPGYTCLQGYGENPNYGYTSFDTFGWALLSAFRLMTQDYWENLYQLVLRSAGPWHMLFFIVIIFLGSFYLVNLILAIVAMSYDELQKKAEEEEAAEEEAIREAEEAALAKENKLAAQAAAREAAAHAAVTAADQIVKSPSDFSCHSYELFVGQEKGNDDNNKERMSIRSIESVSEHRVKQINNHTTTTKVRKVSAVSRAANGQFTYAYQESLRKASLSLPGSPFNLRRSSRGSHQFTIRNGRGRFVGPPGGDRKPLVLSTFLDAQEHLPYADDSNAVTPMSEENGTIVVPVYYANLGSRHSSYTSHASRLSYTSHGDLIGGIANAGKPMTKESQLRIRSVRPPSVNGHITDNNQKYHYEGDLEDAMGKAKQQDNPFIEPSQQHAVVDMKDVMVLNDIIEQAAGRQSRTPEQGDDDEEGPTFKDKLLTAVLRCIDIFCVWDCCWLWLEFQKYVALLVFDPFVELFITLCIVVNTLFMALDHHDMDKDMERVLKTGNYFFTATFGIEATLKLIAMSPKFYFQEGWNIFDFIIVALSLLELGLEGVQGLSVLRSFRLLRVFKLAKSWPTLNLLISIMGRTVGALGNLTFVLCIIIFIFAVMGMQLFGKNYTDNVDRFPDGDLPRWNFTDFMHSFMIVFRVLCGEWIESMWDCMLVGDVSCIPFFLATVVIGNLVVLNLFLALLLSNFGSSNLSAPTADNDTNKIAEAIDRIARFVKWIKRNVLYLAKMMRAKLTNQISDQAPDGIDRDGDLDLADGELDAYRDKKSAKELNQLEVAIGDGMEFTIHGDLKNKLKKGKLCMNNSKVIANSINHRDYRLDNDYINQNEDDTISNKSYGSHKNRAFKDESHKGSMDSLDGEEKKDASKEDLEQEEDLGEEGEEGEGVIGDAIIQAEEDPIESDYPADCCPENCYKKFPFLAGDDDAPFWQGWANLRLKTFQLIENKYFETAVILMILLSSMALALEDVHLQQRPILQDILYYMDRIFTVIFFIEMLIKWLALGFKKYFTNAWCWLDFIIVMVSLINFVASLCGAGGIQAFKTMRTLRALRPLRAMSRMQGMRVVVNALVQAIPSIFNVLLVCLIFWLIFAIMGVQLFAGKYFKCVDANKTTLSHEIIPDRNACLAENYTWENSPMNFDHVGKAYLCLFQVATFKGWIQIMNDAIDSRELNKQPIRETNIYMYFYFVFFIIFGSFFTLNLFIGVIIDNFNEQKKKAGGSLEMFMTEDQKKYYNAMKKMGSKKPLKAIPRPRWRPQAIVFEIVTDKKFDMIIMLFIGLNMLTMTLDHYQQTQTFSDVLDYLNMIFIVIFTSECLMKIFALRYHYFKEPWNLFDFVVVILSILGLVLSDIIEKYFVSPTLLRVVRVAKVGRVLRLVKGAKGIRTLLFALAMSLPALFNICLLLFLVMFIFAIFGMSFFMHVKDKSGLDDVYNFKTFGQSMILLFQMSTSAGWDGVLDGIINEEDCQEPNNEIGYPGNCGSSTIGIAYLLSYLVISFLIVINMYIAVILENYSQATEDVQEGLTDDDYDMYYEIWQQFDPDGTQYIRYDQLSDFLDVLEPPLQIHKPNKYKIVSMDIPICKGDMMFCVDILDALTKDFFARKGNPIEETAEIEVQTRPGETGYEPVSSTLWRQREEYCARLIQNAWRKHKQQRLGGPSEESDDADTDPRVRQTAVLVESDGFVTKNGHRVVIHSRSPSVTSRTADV
T1 sequence (A0A120HXK1 1-238 partner): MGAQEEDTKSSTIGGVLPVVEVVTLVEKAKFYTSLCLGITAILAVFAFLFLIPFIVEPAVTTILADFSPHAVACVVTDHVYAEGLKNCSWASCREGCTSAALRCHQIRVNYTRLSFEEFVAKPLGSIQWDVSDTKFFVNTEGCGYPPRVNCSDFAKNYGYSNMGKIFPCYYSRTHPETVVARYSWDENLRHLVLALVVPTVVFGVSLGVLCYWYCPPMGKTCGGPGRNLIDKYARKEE

## CC(C)C(C(=O)OC(C#N)c1cccc(Oc2ccccc2)c1)c1ccc(Cl)cc1 (stereo not shown) [fenvalerate]
  EC50: 290 nM
